What was measured:
KB-3-1 cells [1] = experiment: Cell cycle analysis (PI staining, flow cytometry); format: cell-based, human; conditions: KB-3-1, subtoxic concentrations
Experimental: 1. Supplementary Materials and Methods
KB-3-1 cells (3.5x105/per well) were seeded into 6-well plates and treated the next day with the […]
After incubation at 37°C for another 24 h, cells were trypsinized, centrifuged (8 min, 300g, RT) and fixed in 70% ethanol and stored at -20°C overnight.
Fixed cells were centrifuged (1 min, 6000g) and resuspended in 100 µL of 0.9% NaCl. RNA was digested with 0.2 mg/mL of RNase for 30 min at 37°C. DNA was stained with propidium iodide (PI, 0.01 mg/mL, Sigma-Aldrich St. Louis, Missouri, USA) for 30 min at 4°C in the dark. Afterwards, cells were analyzed by flow cytometry using FACS Calibur (BD Biosciences, Franklin Lakes, New Jersey, USA) as described previously. CellQuest Pro software (BD Biosciences) was utilized to determine percentages of the respective cell cycle phases. […]
The following primary […]
antibodies specific for the following targets were diluted 1:1000 in TBST/3% BSA (w/v): PARP, Bak, Bax, Bim, Bcl-xL (polyclonal, Cell Signaling Technology, Beverly, MA, USA), caspase 9, cl. caspase 9 (monoclonal, Cell Signaling Technology) and β-actin (monoclonal, Clone AC-15, Sigma-Aldrich).
Secondary horseradish peroxidase-labeled antibodies (goat anti-rabbit or anti-mouse, Santa Cruz Biotechnology, Dallas, Texas, TX, USA) were diluted 1:10,000 in TBST/1% BSA. […]

KB-3-1 cells [2] = experiment: Western blot analysis of apoptosis proteins; format: cell-based, human; conditions: KB-3-1, 24 h
Experimental: 1. Supplementary Materials and Methods […]
1.3 Western Blot Analysis […]
according to standard procedures, separated by SDS-PAGE, and transferred to a polyvinylidene difluoride membrane for Western blotting as described previously. The following primary antibodies specific for the following targets were diluted 1:1000 in TBST/3% BSA (w/v): PARP, Bak, Bax, Bim, Bcl-xL (polyclonal, Cell Signaling Technology, Beverly, MA, USA), caspase 9, cl. caspase 9 (monoclonal, Cell Signaling Technology) and β-actin (monoclonal, Clone AC-15, Sigma-Aldrich).
Secondary horseradish peroxidase-labeled antibodies (goat anti-rabbit or anti-mouse, Santa Cruz Biotechnology, Dallas, Texas, TX, USA) were diluted 1:10,000 in TBST/1% BSA.
(black circles), human non-malignant keratinocytes HaCaT (open circles), murine colon carcinoma CT-26 (asterisks), human cervix carcinoma KB-3-1 (gray triangle) and human colon carcinoma SW480 cells (gray square) at higher density. Cells were grown to a 50-60% confluence and treated with the […]
The IC50 level is indicated by the dotted line. Mean values (± SD) of one representative experiment in triplicate are shown.
Figure S4. […]
Significant differences to untreated controls are marked by asterisks (***p<0.001). (c) Expression of PARP and caspase 9 and amount of cleaved (Cl.) PARP and cleaved Caspase 9, as well as protein expression of Bim, Bax, Bak and Bcl-xL in beauvericin-treated (24 h) and untreated cells were determined by Western Blotting. β-actin served as loading control. […]

HUVEC cells = experiment: Vessel forming and migratory ability of HUVEC cells; format: cell-based, human; conditions: subtoxic concentrations, unpublished data
KB-3-1 cells [3] = test system: KB-3-1 cells; set-up: method as in PMID 19517454; conditions: two-year in vitro selection process; cited from earlier work

Question: For beauvericin, which Cell cycle effect (KB-3-1 cells [1]) is on record?
Answer: cell cycle arrest in the G0/G1-phase

Question: And the “Antiapoptotic Bcl-xL” value (KB-3-1 cells [2])?
Answer: reduced

Question: What about the “Cleavage of PARP and caspase 9” value (KB-3-1 cells [2]) of the same substance?
Answer: induced

Question: And the “Proapoptotic Bcl-2 family members Bim and Bak” value (KB-3-1 cells [2])?
Answer: upregulation

Question: And the “Vessel forming and migratory ability of HUVEC cells” value (HUVEC cells)?
Answer: distinctly inhibited

Question: What about the Acquisition of resistance (KB-3-1 cells [3]) of the same substance?
Answer: did not induce beauvericin-unresponsiveness

From paper PMC5618191 (Toxins, 2017)
